Laboratory results reported in ChEMBL document CHEMBL1149427 (Bioorg Med Chem Lett, 2006).

Legend:
[1] = biological target: Histamine H1 receptor (Cavia porcellus) (UniProt P31389); experiment: Functional activity at the histamine H1 receptor in guinea pig ileum; type: tissue-based
[2] = biological target: Histamine H1 receptor (Cavia porcellus) (UniProt P31389); experiment: (§1) Agonist activity at histamine H1 receptor in guinea pig ileum; type: functional, tissue-based
[3] = biological target: Histamine H1 receptor (Cavia porcellus) (UniProt P31389); experiment: Agonist activity at histamine H1 receptor in guinea pig ileum in presence of mepyramine; type: functional, tissue-based
Histamine H1 receptor = Histamine H1 receptor (Cavia porcellus, UniProt P31389); experiment: as §1; type: functional, tissue-based
Chain of Histamine H1 receptor (P31389 whole entry): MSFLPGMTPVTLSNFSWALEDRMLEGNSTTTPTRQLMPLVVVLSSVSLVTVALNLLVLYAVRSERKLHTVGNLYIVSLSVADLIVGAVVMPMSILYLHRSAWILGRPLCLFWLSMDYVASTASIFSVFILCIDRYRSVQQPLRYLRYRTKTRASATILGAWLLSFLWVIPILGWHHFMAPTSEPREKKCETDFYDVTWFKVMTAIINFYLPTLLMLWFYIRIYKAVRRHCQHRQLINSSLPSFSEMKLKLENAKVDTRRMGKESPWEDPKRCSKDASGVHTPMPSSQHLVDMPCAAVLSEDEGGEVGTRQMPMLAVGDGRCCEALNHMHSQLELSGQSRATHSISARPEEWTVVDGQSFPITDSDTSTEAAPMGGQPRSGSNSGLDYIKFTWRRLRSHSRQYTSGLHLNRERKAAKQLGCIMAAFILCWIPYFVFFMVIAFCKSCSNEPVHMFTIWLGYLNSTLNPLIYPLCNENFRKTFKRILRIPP

Chain of Histamine H1 receptor (Cavia porcellus) (P31389 whole entry): as above

| SMILES | pD'2 [1] | Emax [2] | Emax [3] | EC50 (Histamine H1 receptor) | Activity [2] |
| --- | --- | --- | --- | --- | --- |
| COC(=O)[C@@H](N)[C@H](O)c1c[nH]c(C(=O)CC(c2ccccc2)c2ccccc2)n1 | 4.61 | 0% | – | – | – |
| COC(=O)C(N)C(O)c1c[nH]c(C(=O)CC(c2ccccc2)c2ccccc2)n1 (racemic) | 3.8 | 0% | – | – | – |
| NCCc1c[nH]c(C(=O)CC(c2ccccc2)c2ccccc2)n1 | – | 75% | 47% | 1660 nM | 12% |
| NCCc1c[nH]cn1 | – | – | – | – | 100% |
| N[C@H](CO)[C@H](O)c1c[nH]c(C(=O)CC(c2ccccc2)c2ccccc2)n1 | 4.08 | 0% | – | – | – |
| COCCOCn1cc(CCN)nc1C(=O)CC(c1ccccc1)c1ccccc1 | 5.05 | 0% | – | – | – |
